Measured values from a compilation of properties of binary mixtures (doi:10.1021/acs.jpcc.9b06000).

Test: xn = mol fraction of the nth substance listed
Conditions: 101 kPa

## FC1CC(F)(F)C(F)(F)C1(F)F (centres undefined) + CCCC[N+]1(C)CCCC1.FC(F)(F)C(F)(F)[P-](F)(F)(F)(C(F)(F)C(F)(F)F)C(F)(F)C(F)(F)F
298.1 K, x2 = 0.035
  electrical conductivity: 0.402 S/m
298.1 K, x2 = 0.077
  electrical conductivity: 0.514 S/m
298.1 K, x2 = 0.122
  electrical conductivity: 0.605 S/m
298.1 K, x2 = 0.127
  viscosity: 3.91 mPa·s
298.1 K, x2 = 0.18
  electrical conductivity: 0.678 S/m
298.1 K, x2 = 0.248
  electrical conductivity: 0.569 S/m
298.1 K, x2 = 0.334
  electrical conductivity: 0.489 S/m
298.1 K, x2 = 0.437
  electrical conductivity: 0.351 S/m
298.1 K, x2 = 0.656
  viscosity: 54.8 mPa·s
298.1 K, x2 = 0.841
  viscosity: 112.6 mPa·s
303 K, x2 = 0.035
  electrical conductivity: 0.428 S/m
303 K, x2 = 0.077
  electrical conductivity: 0.554 S/m
303 K, x2 = 0.08
  viscosity: 2.72 mPa·s
303 K, x2 = 0.122
  electrical conductivity: 0.656 S/m
303 K, x2 = 0.248
  electrical conductivity: 0.638 S/m
303 K, x2 = 0.331
  electrical conductivity: 0.572 S/m
303 K, x2 = 0.338
  viscosity: 11.23 mPa·s
303 K, x2 = 0.653
  electrical conductivity: 0.33 S/m
303 K, x2 = 0.659
  viscosity: 45 mPa·s
308.1 K, x2 = 0.032
  electrical conductivity: 0.453 S/m
308.1 K, x2 = 0.08
  viscosity: 2.37 mPa·s
308.1 K, x2 = 0.125
  electrical conductivity: 0.717 S/m
308.1 K, x2 = 0.183
  electrical conductivity: 0.812 S/m
308.1 K, x2 = 0.248
  electrical conductivity: 0.703 S/m
308.1 K, x2 = 0.331
  electrical conductivity: 0.641 S/m
308.1 K, x2 = 0.437
  electrical conductivity: 0.478 S/m
  viscosity: 15.23 mPa·s
308.1 K, x2 = 0.656
  electrical conductivity: 0.38 S/m
  viscosity: 37 mPa·s
308.1 K, x2 = 0.839
  electrical conductivity: 0.254 S/m
308.1 K, x2 = 0.844
  viscosity: 68.1 mPa·s
313 K, x2 = 0
  viscosity: 1.28 mPa·s
313 K, x2 = 0.035
  electrical conductivity: 0.482 S/m
313 K, x2 = 0.077
  electrical conductivity: 0.638 S/m
313 K, x2 = 0.122
  electrical conductivity: 0.772 S/m
313 K, x2 = 0.251
  electrical conductivity: 0.764 S/m
313 K, x2 = 0.334
  electrical conductivity: 0.714 S/m
313 K, x2 = 0.338
  viscosity: 8.03 mPa·s
313 K, x2 = 0.437
  electrical conductivity: 0.54 S/m
313 K, x2 = 0.653
  electrical conductivity: 0.449 S/m
313 K, x2 = 0.655
  viscosity: 28.8 mPa·s
313 K, x2 = 0.839
  electrical conductivity: 0.297 S/m
313 K, x2 = 0.841
  viscosity: 54.5 mPa·s
318.1 K, x2 = 0.08
  viscosity: 1.95 mPa·s
318.1 K, x2 = 0.125
  electrical conductivity: 0.83 S/m
318.1 K, x2 = 0.183
  electrical conductivity: 0.949 S/m
318.1 K, x2 = 0.248
  electrical conductivity: 0.826 S/m
318.1 K, x2 = 0.338
  electrical conductivity: 0.786 S/m
318.1 K, x2 = 0.431
  electrical conductivity: 0.609 S/m
318.1 K, x2 = 0.653
  electrical conductivity: 0.511 S/m
318.1 K, x2 = 0.84
  viscosity: 44.8 mPa·s
323 K, x2 = 0
  viscosity: 1.08 mPa·s
323 K, x2 = 0.039
  electrical conductivity: 0.543 S/m
323 K, x2 = 0.077
  electrical conductivity: 0.75 S/m
323 K, x2 = 0.122
  electrical conductivity: 0.906 S/m
323 K, x2 = 0.183
  electrical conductivity: 1.04 S/m
  viscosity: 3.12 mPa·s
323 K, x2 = 0.248
  electrical conductivity: 0.899 S/m
323 K, x2 = 0.331
  electrical conductivity: 0.851 S/m
323 K, x2 = 0.335
  viscosity: 6.61 mPa·s
323 K, x2 = 0.434
  electrical conductivity: 0.703 S/m
323 K, x2 = 0.653
  electrical conductivity: 0.591 S/m
323 K, x2 = 0.839
  electrical conductivity: 0.417 S/m
323 K, x2 = 0.84
  viscosity: 36.8 mPa·s
